Source: paper PMC8657982, “Overlap and Specificity in the Substrate Spectra of Human Monoamine Transporters and Organic Cation Transporters 1, 2, and 3” (International Journal of Molecular Sciences, 2021)

Key:
SERT = SERT (Homo sapiens, UniProt P31645); assay: Uptake into HEK293 cells overexpressing SERT (uptake ratio and concentration-dependent uptake); settings: for Clint ± SEM: SERT, intrinsic clearance, quotient of vmax and Km;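 as to Uptake Ratio by Transporter SERT: ratio of uptake in SERT cells over empty-vector control cells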;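 as to all read-outs here: incubation at 37 °C, intracellular compound quantified by HPLC-MS/MS after cell lysis, uptake normalized to total protein measured by bicinchoninic acid assay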
NET = NET (Homo sapiens, UniProt P23975); assay: Uptake into HEK293 cells overexpressing NET (uptake ratio and concentration-dependent uptake); settings: intrinsic clearance, quotient of vmax and Km
DAT = DAT (Homo sapiens, UniProt Q01959); assay: Uptake into HEK293 cells overexpressing DAT (uptake ratio and concentration-dependent uptake); settings: intrinsic clearance, quotient of vmax and Km
OCT1 = target: T1, OCT1 (Homo sapiens, UniProt O15245); assay: Uptake into HEK293 cells overexpressing OCT1 (uptake ratio and concentration-dependent uptake); settings: intrinsic clearance, quotient of vmax and Km
T1 sequence (O15245 1-554): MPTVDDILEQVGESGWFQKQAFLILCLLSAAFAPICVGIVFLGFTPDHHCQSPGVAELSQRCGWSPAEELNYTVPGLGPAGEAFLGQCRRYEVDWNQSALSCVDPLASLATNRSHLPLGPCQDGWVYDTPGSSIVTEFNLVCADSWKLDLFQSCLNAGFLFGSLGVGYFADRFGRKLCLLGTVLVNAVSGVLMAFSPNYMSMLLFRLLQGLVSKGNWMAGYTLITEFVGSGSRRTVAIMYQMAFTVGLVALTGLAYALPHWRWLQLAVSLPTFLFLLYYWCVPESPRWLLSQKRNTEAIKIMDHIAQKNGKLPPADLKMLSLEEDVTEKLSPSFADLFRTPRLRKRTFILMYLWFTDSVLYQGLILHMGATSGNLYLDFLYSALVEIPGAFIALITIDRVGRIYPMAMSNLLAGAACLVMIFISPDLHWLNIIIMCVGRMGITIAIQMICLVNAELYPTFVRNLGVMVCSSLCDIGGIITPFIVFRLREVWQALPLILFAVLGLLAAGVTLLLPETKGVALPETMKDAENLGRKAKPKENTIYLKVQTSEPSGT

OCT2 = target: T2, OCT2 (Homo sapiens, UniProt O15244); assay: Uptake into HEK293 cells overexpressing OCT2 (uptake ratio and concentration-dependent uptake); settings: for Vmax ± SEM: concentration-dependent net uptake, Michaelis–Menten; for Clint ± SEM: intrinsic clearance, quotient of vmax and Km
T2 sequence (O15244 1-555): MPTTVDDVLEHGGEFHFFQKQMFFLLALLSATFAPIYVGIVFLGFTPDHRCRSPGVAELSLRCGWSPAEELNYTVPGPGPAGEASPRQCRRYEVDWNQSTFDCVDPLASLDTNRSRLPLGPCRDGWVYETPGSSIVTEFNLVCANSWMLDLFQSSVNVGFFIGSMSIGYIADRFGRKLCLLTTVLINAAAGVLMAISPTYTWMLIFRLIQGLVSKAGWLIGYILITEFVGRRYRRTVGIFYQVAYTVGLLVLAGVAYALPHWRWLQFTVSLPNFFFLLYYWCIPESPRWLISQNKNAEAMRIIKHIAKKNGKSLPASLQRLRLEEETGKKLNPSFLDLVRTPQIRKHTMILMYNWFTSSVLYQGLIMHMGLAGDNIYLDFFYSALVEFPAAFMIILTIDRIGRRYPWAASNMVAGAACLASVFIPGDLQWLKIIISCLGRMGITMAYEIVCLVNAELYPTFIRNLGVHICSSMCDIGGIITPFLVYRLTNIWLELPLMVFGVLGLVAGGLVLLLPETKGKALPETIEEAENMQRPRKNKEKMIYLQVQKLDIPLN

OCT3 = target: T3, OCT3 (Homo sapiens, UniProt O75751); assay: Uptake into HEK293 cells overexpressing OCT3 (uptake ratio and concentration-dependent uptake); settings: intrinsic clearance, quotient of vmax and Km
T3 sequence (O75751 1-556): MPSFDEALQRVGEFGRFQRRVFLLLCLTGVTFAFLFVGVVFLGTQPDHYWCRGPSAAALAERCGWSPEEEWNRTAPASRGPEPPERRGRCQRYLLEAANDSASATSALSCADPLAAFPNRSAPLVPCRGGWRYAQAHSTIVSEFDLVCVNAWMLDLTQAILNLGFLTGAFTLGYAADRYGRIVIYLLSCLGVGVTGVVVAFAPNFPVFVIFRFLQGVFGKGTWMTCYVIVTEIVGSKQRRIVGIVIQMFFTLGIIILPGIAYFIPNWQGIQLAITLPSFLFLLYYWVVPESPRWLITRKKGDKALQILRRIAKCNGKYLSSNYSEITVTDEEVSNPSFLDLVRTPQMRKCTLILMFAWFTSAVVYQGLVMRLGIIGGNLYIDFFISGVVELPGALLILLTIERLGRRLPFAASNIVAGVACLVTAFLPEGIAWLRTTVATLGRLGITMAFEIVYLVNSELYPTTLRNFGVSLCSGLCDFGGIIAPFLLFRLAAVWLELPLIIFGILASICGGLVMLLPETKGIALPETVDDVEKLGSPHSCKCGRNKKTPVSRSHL

[1] = substrate: CNCCc1c[nH]c2ccc(O)cc12; assay: cells, lysate or membranes; settings: concentration-dependent net uptake, Michaelis–Menten, pH 7.4
[2] = substrate: N=C(N)NCc1cccc(I)c1; assay: cells, lysate or membranes; settings: concentration-dependent net uptake, Michaelis–Menten, pH 7.4
[3] = substrate: NCCc1c[nH]c2ccc(O)cc12; assay: cells, lysate or membranes; settings: concentration-dependent net uptake, Michaelis–Menten, pH 7.4

Sequence of SERT (P31645 whole entry): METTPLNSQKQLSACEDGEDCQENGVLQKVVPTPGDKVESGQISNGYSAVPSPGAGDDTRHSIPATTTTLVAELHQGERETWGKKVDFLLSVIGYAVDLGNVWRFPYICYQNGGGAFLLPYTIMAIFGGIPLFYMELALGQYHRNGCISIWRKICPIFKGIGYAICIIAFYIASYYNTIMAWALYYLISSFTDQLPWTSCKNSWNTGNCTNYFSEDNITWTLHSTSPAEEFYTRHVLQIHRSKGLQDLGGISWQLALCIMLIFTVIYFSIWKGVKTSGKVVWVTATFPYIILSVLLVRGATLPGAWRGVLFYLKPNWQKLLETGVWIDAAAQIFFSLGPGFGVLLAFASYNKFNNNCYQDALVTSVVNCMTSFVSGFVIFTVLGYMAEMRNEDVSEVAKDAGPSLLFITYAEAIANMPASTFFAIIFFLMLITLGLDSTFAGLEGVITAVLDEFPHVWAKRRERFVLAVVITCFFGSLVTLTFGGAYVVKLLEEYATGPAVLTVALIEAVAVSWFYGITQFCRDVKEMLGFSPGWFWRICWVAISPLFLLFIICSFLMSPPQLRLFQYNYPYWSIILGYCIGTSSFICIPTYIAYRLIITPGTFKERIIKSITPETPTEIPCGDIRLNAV
Sequence of NET (P23975 whole entry): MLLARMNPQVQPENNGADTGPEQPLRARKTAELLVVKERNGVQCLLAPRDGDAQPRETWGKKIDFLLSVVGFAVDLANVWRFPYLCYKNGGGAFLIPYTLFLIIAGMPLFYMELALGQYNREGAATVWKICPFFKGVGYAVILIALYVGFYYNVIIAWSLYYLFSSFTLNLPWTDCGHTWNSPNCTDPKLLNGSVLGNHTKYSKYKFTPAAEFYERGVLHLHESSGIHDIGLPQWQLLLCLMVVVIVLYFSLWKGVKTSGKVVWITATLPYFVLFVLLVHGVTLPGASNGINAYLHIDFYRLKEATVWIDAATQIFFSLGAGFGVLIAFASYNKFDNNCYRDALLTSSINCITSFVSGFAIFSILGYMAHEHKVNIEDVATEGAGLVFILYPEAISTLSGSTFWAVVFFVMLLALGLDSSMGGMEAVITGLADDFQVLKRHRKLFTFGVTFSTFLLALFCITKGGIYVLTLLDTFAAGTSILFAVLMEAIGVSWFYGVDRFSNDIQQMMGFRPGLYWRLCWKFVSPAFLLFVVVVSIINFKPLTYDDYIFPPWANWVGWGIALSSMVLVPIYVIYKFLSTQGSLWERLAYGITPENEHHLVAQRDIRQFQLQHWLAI
Sequence of DAT (Q01959 whole entry): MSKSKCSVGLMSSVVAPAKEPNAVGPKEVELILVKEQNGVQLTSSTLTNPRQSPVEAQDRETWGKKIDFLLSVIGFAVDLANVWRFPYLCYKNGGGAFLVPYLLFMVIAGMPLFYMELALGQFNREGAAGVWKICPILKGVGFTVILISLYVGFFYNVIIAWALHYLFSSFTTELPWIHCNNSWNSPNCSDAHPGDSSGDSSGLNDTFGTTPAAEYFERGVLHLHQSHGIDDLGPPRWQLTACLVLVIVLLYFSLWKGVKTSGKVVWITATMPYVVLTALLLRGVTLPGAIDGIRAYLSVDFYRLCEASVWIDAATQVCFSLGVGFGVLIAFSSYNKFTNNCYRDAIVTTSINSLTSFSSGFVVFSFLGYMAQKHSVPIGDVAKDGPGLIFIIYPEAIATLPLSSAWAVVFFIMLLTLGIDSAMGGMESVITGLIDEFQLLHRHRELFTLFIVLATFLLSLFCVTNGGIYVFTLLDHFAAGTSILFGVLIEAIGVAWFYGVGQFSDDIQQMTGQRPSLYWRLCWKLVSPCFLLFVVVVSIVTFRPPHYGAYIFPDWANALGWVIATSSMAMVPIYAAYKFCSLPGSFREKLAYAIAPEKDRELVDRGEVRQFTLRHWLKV

NCc1ccc(O)cc1 [4-Hydroxybenzylamine]
Uptake Ratio by Transporter SERT (SERT): 1.55

NCC(O)c1ccccc1 (stereo not shown) [Bisnorephedrine]
Uptake Ratio by Transporter SERT (SERT): 1.45

CNCC(O)c1ccc(O)c(OC)c1 (stereo not shown) [Metanephrine]
Uptake Ratio by Transporter SERT (SERT): 1.97

CNCCc1ccc(O)c(O)c1 [Deoxyepinephrine]
Uptake Ratio by Transporter SERT (SERT): 13.89

CN(C)CCc1ccc(O)cc1 [Hordenine]
Uptake Ratio by Transporter SERT (SERT): 2.02

NC1CC1c1ccccc1 (stereo not shown) [Tranylcypromin, reference compound]
Uptake Ratio by Transporter SERT (SERT): 2.37

COc1cc(CCN)ccc1O [3-Methoxy-p-tyramine]
Uptake Ratio by Transporter SERT (SERT): 4.45

COc1ccc(CCN)cc1O [4-Methoxy-m-tyramine]
Uptake Ratio by Transporter SERT (SERT): 3.86

NCCc1c[nH]c2ccc(O)cc12 [Serotonin]
Clint ± SEM (NET): 18.83 mL × g Protein^−1 × min^−1 | Clint ± SEM (DAT): 77.39 mL × g Protein^−1 × min^−1 | Clint ± SEM (OCT1): 21.91 mL × g Protein^−1 × min^−1 | Vmax ± SEM (OCT2): 31,565 pmol × mg Protein^−1 × min^−1 | Clint ± SEM (OCT2): 46.04 mL × g Protein^−1 × min^−1 | Clint ± SEM (OCT3): 1.17 mL × g Protein^−1 × min^−1 | Clint ± SEM (SERT): 256.9 mL × g Protein^−1 × min^−1

COc1cc(C(O)CN)ccc1O (stereo not shown) [Normetanephrine]
Uptake Ratio by Transporter SERT (SERT): 1.91

CNCC(O)c1ccccc1 (stereo not shown) [Halostachine]
Uptake Ratio by Transporter SERT (SERT): 2.26

NCCc1c[nH]c2ccccc12 [Tryptamine]
Uptake Ratio by Transporter SERT (SERT): 4.88 | Clint ± SEM (SERT): 22.0 mL × g Protein^−1 × min^−1

NC[C@H](O)c1ccc(O)c(O)c1 [(-)-Norepinephrine]
Clint ± SEM (NET): 47.8 mL × g Protein^−1 × min^−1

CN[C@@H]1CCc2[nH]c3ccc(C(N)=O)cc3c2C1 [(R)-Frovatriptan, reference compound]
Clint ± SEM (SERT): 38.48 mL × g Protein^−1 × min^−1

CNCCc1ccc(O)cc1 [N-Methyl p-tyramine]
Uptake Ratio by Transporter SERT (SERT): 2.46

NCCc1ccc(O)c(O)c1 [Dopamine]
Clint ± SEM (DAT): 78.9 mL × g Protein^−1 × min^−1

COc1ccc2[nH]cc(CCN)c2c1 [5-Methoxy-Tryptamine]
Uptake Ratio by Transporter SERT (SERT): 3.46

CNCCc1c[nH]c2ccc(O)cc12 [N-Methyl serotonin]
Clint ± SEM (OCT1): 80.52 mL × g Protein^−1 × min^−1 | Vmax ± SEM (OCT2): 11,918 pmol × mg Protein^−1 × min^−1 | Clint ± SEM (OCT2): 46.93 mL × g Protein^−1 × min^−1 | Clint ± SEM (OCT3): 9.68 mL × g Protein^−1 × min^−1 | Clint ± SEM (SERT): 337.7 mL × g Protein^−1 × min^−1

CNCCc1ccccc1 [N-Methylphenylethylamine]
Uptake Ratio by Transporter SERT (SERT): 2.29

C[n+]1ccc(-c2ccccc2)cc1 [MPP+, reference compound]
Uptake Ratio by Transporter SERT (SERT): 50.42

NCCc1cccc(O)c1 [m-Tyramine]
Uptake Ratio by Transporter SERT (SERT): 3.08

CNCC(O)c1ccc(O)cc1 (stereo not shown) [Synephrine]
Uptake Ratio by Transporter SERT (SERT): 1.53

B1: OCT3 (Homo sapiens) (protein)
chain: T3 sequence (O75751 1-556)
Km ([1]; other: OCT3): 18.78 ± 12.42 µM | Vmax ([1]; other: OCT3): 181.7 pmol × mg Protein^−1 × min^−1 | Km ([2]; other: OCT3): 10.5 ± 1.9 µM | Vmax ([2]; other: OCT3): 0.00169 µmol/min/mg | Vmax/Km ([2]; other: OCT3): 161 µL/min/mg

B2: OCT2 (Homo sapiens) (protein)
chain: T2 sequence (O15244 1-555)
Km ([1]; other: OCT2): 253.9 ± 54.98 µM | Vmax ([1]; other: OCT2): 11918 pmol × mg Protein^−1 × min^−1 | Km ([2]; other: OCT2): 13.3 ± 2.4 µM | Vmax ([2]; other: OCT2): 0.00204 µmol/min/mg | Vmax/Km ([2]; other: OCT2): 152 µL/min/mg | Km ([3]; other: OCT2): 685.6 µM | Vmax ([3]; other: OCT2): 31565 pmol × mg Protein^−1 × min^−1

B3: OCT1 (Homo sapiens) (protein)
chain: T1 sequence (O15245 1-554)
Km ([1]; other: OCT1): 27.78 ± 9.19 µM | Vmax ([1]; other: OCT1): 2237 pmol × mg Protein^−1 × min^−1 | Km ([2]; other: OCT1): 16.6 ± 3.7 µM | Vmax ([2]; other: OCT1): 0.0023 µmol/min/mg | Vmax/Km ([2]; other: OCT1): 138 µL/min/mg | Km ([3]; other: OCT1): 235.6 µM | Vmax ([3]; other: OCT1): 5161 pmol × mg Protein^−1 × min^−1
